Consider one compound from patent US20100204149A1, “USE OF OCTREOTIDE AS A THERAPEUTIC AGENT” (priority 2007, published 2010).

For this test, the system named is HUVEC. Kind of test: Endothelial tube formation assay. The format is cell-based, human. The conditions noted are these: peptide 10 micrograms per ml, 20 hours. The procedure:
The endothelial tube formation assay is based on the ability of endothelial cells to form three-dimensional capillary-like tubular structures when cultured on a gel of basement membrane extract. The endothelial tube formation assay represents a powerful model for studying inhibition and induction of angiogenesis. Pre-labeled HUVEC with Calcein AM were seeded in a 96-well culture plate coated with extracellular metrix (Chemicon international Cat. ECM625) and treated with test peptide—10 micrograms per ml—in full growth medium. […] control was vehicle only. The endothelial cells were allowed to form tubes for 20 hours and were then examined under an inverted fluorescent microscope. Duplicate wells for each treatment were photographed and quantitatively analyzed for an average tubule length using image analysis software ImageProPlus. Raw data were expressed as average tubule lengths in pixels ±standard deviation. Statistic p values were computed using the Student's t-test.

As to `C[C@@H](O)[C@@H]1NC(=O)[C@H](CCCCN)NC(=O)[C@@H](Cc2c[nH]c3ccccc23)NC(=O)[C@H](Cc2ccccc2)NC(=O)[C@@H](NC(=O)[C@H](N)Cc2ccccc2)CSSC[C@@H](C(=O)N[C@H](CO)[C@@H](C)O)NC1=O` [Octreotide, H-D-Phe-Cys-Phe-D-Trp-Lys-Thr-Cys-L-threoninol], the “% inhibition of tube formation” value is 8%.
